Experiments:
ETA receptors = biological target: T1, ETA receptors (Homo sapiens, UniProt P25101); assay: Effect on calcium current in cells stably expressing ETA receptors (FLIPR, antagonist mode); type: cell-based; conditions: HEK293-ETA cells, Fluo-8 AM, FLIPR Tetra; read-out: IC50 values of compounds on calcium current in cells stably expressing ETA receptors
T1 construct: host or cells: HEK293
T1 sequence (P25101 21-427): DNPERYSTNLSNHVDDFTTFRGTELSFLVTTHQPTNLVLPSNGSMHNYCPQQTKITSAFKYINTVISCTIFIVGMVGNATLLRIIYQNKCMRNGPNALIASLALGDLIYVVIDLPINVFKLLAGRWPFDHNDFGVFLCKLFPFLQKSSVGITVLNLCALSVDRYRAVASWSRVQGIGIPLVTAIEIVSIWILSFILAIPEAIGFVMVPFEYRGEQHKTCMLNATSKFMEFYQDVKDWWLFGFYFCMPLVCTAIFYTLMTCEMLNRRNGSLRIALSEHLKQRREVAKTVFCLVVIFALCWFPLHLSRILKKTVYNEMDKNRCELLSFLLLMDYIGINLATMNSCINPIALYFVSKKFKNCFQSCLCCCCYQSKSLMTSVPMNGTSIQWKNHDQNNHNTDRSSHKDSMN
From the text: Test Example 2. Determination of the Effect of the Compounds of the Present Invention on Calcium Current in Cells Stably Expressing ETA Receptors
• Antagonistic effect of test compounds on HEK293-ETA cell activity.
• DMEM, high glucose (Gibco: 12100); • Fetal bovine serum (Biosera: FB-1058/500); • P/S (Biosera: XC-A4122); • 5× Matrigel (Corning: 354230); • HBSS (Sigma: H1387); • HEPES (Invitrogen: 15630080); • Fluo-8 AM (AAT Bioquest: 21080); • Probenecid (Sigma: P8761); • Pluronic F-127 (Sigma: P2443-250G); • Endothelin 1 (MCE: HY—P0202); • Zibotentan (MCE: HY-10088); • 1000× Fluo-8 AM (2 mM): Fluo-8 AM was dissolved in DMSO, the mixture was shaken for 1-2 min, sub-packaged and stored at −20° C.; • Complete culture medium: DMEM+10% FBS+1×P/S; • Cell seeding medium: DMEM+10% FBS+1×PS; • Experimental buffer 1: 1×HBSS+20 mM HEPES+1 mM Probenecid+0.025% Pluronic F-127; • Experimental buffer 2: 1×HBSS+20 mM HEPES+0.075% Pluronic F-127; • 1× Matrigel: 5× Matrigel was diluted with DMEM; • Cell line: HDB HEK293-ETA.
• 1) HEK293-ETA cell line was cultured in complete culture medium at 37° C., 5% CO2 to 70%-90% confluence. • 2) the 384-well cell plate was coated with 1× Matrigel with 5 μL/well at room temperature for 10 to 30 min. • 3) the cells were digested and resuspended in cell seeding medium, inoculation was performed at 8,000 cells/well/20 μL in a 384-well cell culture plate, and the cells were cultured at 37° C., 5% CO2 for 24 h. • 4) the cell culture plate was taken out of the CO2 incubator and equilibrated at room temperature for 10 min. • 5) 1000× Fluo-8 AM was taken and diluted to 1× Fluo-8 AM with experimental buffer 1 that has been equilibrated to room temperature, with a concentration of 2 μM. • 6) the culture medium was removed from the cell culture plate, 20 μL of 1× Fluo-8 AM was added to each well, the mixture was centrifuged at 300 rpm for 60 seconds at room temperature, and incubated at room temperature in the dark for 1 h. • 7) positive control compound and test compound working solution (3×) were formulated: • (1) instrument Bravo was used to dilute the compound to 11 concentration points on the 384-well Echo compound plate (LABCYTE: LP-0200); • (2) instrument ECHO was used to transfer 90 nL of compound per well (compound storage concentration, such as the highest concentration point 10 mM) to the 384-well compound plate (PE: 6008590); • (3) Multidrop Combi was used to add 30 μL of experimental buffer 2 to the 384-well compound plate (PE: 6008590), the positive control compound and test compound were diluted to 30 μM (3×), and placed at room temperature until use. • 8) FLIPR Tetra was used to add 10 μL of diluted 3× compound into the experimental well of the corresponding 384-well cell plate, the compound and cells were incubated for 10 min at room temperature, then 10 μL of diluted 4× agonist was added, and the data was read and collected at the same time.
FLIPR Tetra was used to read and collect the fluorescence signal value (RFU). The maximum RFU value was used to calculate the percent activation data based on the readings of the Low control (DMSO control) and High control (100 nM positive compound) experimental groups {% activation rate=(RFUsample−RFUlow control)/(RFUhigh control−RFUlow control)×100}. The concentration of the test compound was 11 concentrations after diluting the reaction system 3 times, ranging from 10 μM to 0.17 nM.

[1] = Liver microsomal metabolism stability test, rat; type: in vitro ADME; conditions: for half-life at 1 μM: rat liver microsomes 0.5 mg/mL, compound 1 μM, NADPH/UDPGA; for Remaining rate: rat liver microsomes, 60 min
Description: (§1) The purpose of this experiment was to detect the stability of the example compounds in liver microsomes of rats, dogs and humans.
(§2) • Formulation of working solution of compounds: compound stock solution was added to phosphate buffer to a final concentration of 20 μM.
(§3) Dilution was performed with 100 mM phosphate buffer to a final concentration of 0.625 mg/mL.
(§4) NADPH (reduced nicotinamide adenine dinucleotide phosphate) and UDPGA (uridine diphosphate glucuronic acid) were weighed, 100 mM phosphate buffer was added, and the final concentration was 20 mM.
(§5) 1 mg of Alamethicin was weighed, and 200 μL of DMSO was added to formulate a 5 mg/mL solution. Then dilution was performed with phosphate buffer to a final concentration of 50 μg/mL.
(§6) Stop solution: the stop solution contains 100 ng/mL labetalol hydrochloride and 400 ng/mL tolbutamide and cold acetonitrile as internal standard.
(§7) 400 μL of formulated liver microsomes, 25 μL of compound working solution and 25 μL of Alamethicin were added in sequence to the 96-well plate, and pre-incubated at 37° C. for 10 min. Then 50 μL of formulated NADPH/UDPGA was added to start the reaction and the mixture was incubated at 37° C. The total volume of the reaction system was 500 μL. The final contents of each component are as follows:
(§8) • Instrument: Shimadzu LC-30 AD; • Chromatographic column: XBridge® C18 (50*4.6 mm, 5 μm particle size); • Mobile phase: A: 0.1% formic acid solution, B: methanol Wash gradient: 0.2-1.6 min 5% A to 95% A, 3.0-3.1 min 95% A to 5% A Run time: 4.0 min.
(§9) • Instrument: API5500 liquid chromatography mass spectrometer, AB Sciex; • Ion source: electrospray ionization source (ESI); • Drying gas: N2, temperature 500° C.; • Electrospray voltage: 5000 V; • Detection mode: positive ion detection; • Scanning mode: reaction monitoring (MRM) mode.

[2] = Liver microsomal metabolism stability test, human; type: in vitro ADME; conditions: for half-life at 1 μM: human liver microsomes 0.5 mg/mL, compound 1 μM, NADPH/UDPGA; for Remaining rate: human liver microsomes, 60 min
Description: as §1, §2, §3, §4, §5, §6, §7, §8, §9

| Structure (SMILES) | IC50 (ETA receptors) [nM] | half-life at 1 μM [1] [min] | Remaining rate [1] [%] | half-life at 1 μM [2] [min] | Remaining rate [2] [%] |
| --- | --- | --- | --- | --- | --- |
| CCCCC1=NC2(CC3CC3C2)C(=O)N1Cc1ccc(-c2ccccc2S(=O)(=O)Nc2noc(C)c2C)c(COCC)c1 (stereo not shown) [Example 87, 4′-((2′-butyl-5′-oxaspiro[bicyclo[3.1.0]hexane-3,4′-imidazole]-1′(5′H)-yl)methyl)-N-(4,5-dimethylisoxazol-3-yl)-2′-(ethoxymethyl)-[1,1′-biphenyl]-2-sulfonamide] | 8.2 |  |  |  |  |
| [2H]C([2H])(OCC)c1cc(CN2C(=O)C3(CCCC3)N=C2CCCC)ccc1-c1ccccc1S(=O)(=O)Nc1noc(C)c1Cl [Example 49, 4′-((2-butyl-4-oxo-1,3-diazospiro[4.4]non-1-en-3-yl)methyl)-N-(4-chloro-5-methylisoxazol-3-yl)-2′-(ethoxydeuteriummethyl)-[1,1′-biphenyl]-2-sulfonamide] | 12.9 | 24 | 17.1 | 26.2 | 30.7 |
| CCCCC1=NC2(CCCC2)C(=O)N1Cc1ccc(-c2ccccc2S(=O)(=O)Nc2noc(C)c2Br)c(COCC)c1 [Example 46, 2-[4-[(2-butyl-4-oxo-1,3-diazaspiro[4.4]non-1-en-3-yl)methyl]-2-(ethoxymethyl)phenyl]-N-(4-bromo-5-methyl-isoxazol-3-yl)benzsulfamide] |  | 24.3 | 17.3 | 28.9 | 23.8 |

Now from value to compound, other results behind:

| IC50 (ETA receptors) [nM] | Structure (SMILES) | half-life at 1 μM [1] [min] | Remaining rate [1] [%] | half-life at 1 μM [2] [min] | Remaining rate [2] [%] |
| --- | --- | --- | --- | --- | --- |
| 13.9 | CCCCC1=NC2(CCCC2)C(=O)N1Cc1ccc(-c2ccccc2S(=O)(=O)Nc2noc(C)c2Cl)c(COCC(F)(F)F)c1 [Example 86] |  |  |  |  |
| 7.2 | CCCCC1=NC2(CC3CC3C2)C(=O)N1Cc1ccc(-c2ccccc2S(=O)(=O)Nc2noc(C)c2Cl)c(COCC)c1 (stereo not shown) [Example 65, 4′-((2′-butyl-5′-oxaspiro[bicyclo[3.1.0]hexane-3,4′-imidazole]-1′(5′H)-yl)methyl)-N-(4-chloro-5-methylisoxazol-3-yl)-2′-(ethoxymethyl)-[1,1′-biphenyl]-2-sulfonamide] |  |  |  |  |
| 18.7 | CCCCC1=NC2(CCCCC2)C(=O)N1Cc1ccc(-c2ccccc2S(=O)(=O)Nc2noc(C)c2Cl)c(COCC)c1 [Example 68, 4′-((2-2-4-4-oxo-1,3-diazaspiro[4.5]dec-1-en-3-yl)methyl)-N-(4-chloro-5-methylisoxazol-3-yl)-2′-(ethoxymethyl)-[1,1′-biphenyl]-2-sulfonamide] |  |  |  |  |
